Target: T1, MERTK (Homo sapiens, UniProt Q12866)
T1 construct: endogenous in cells
T1 sequence (Q12866 21-999): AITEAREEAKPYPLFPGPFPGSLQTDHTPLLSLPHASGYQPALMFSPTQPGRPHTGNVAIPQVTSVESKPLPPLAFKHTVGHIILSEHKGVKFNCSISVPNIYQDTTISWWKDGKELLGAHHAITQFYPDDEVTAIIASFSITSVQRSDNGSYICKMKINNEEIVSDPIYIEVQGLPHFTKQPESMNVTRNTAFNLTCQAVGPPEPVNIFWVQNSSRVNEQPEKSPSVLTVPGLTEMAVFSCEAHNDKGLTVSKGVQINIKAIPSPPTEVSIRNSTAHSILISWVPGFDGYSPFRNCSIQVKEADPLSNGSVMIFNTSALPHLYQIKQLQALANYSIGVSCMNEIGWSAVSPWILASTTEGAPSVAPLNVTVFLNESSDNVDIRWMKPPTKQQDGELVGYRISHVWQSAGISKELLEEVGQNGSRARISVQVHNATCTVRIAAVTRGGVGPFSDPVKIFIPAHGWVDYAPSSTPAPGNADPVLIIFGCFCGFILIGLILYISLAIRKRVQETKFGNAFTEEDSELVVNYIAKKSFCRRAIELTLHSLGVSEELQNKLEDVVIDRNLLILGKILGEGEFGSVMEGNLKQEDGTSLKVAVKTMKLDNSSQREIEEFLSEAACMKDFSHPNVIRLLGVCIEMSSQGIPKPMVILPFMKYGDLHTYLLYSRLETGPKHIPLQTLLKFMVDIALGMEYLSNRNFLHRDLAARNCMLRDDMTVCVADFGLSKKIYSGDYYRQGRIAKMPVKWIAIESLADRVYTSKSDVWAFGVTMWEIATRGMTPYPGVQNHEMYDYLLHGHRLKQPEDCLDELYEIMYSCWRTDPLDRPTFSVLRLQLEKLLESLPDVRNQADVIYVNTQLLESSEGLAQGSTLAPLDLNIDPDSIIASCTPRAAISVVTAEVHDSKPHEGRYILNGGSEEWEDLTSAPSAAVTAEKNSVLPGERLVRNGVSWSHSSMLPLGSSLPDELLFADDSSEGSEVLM
Assay: Kinobead competition assay
Format: binding
Conditions: only kinase among >190
Description: The binding of KV-24 and KV-30 to the nucleotide-binding pocket raises the question of whether these compounds also target other nucleotide-binding proteins, such as kinases. To evaluate potential off-target effects, we performed Kinobead competition assays. This chemoproteomic approach is conceptually very similar to the one used here in that broad spectrum kinase inhibitors are immobilized on beads. […] PDE1C is a cAMP/cGMP nucleotide-binding protein that features two divalent metal cation cofactors. The hydroxamic acid moiety of KV-24 might chelate these metal cofactors, supporting the hypothesis that KV-24 binds the active site of PDE1C. […] With the help of our chemoproteomic platform, future structure–activity relationship (SAR) libraries based on the KV-24 and KV-30 scaffolds may be explored to improve selectivity toward either HINT1, kinase targets, or PDE1C. […]
LC-MS/MS. The different sample types were measured with different LC-MS/MS settings. MBLAC2 2-dose competition assays were measured with the Lumos1 setup, MBLAC2 9-dose competition assays were measured with the Lumos2 setup, and kinobeads assays were measured with the Eclipse setup.
Peptides were analyzed via LC–MS/MS on a Dionex Ultimate3000 nano HPLC coupled to either one of two Orbitrap Fusion Lumos mass spectrometers, or to an Orbitrap Eclipse mass spectrometer, operated via the Thermo Scientific Xcalibur software. […]

O=C(NO)c1ccc(-c2nc3ccccc3c3ccccc23)cc1 [KV-30]
MERTK binding: potential binding

Source: article PMC12186257, “Serendipitous and Systematic Chemoproteomic Discovery of MBLAC2, HINT1, and NME1‑4 Inhibitors from Histone Deacetylase-Targeting Pharmacophores” (ACS Chemical Biology, 2025)
